Experiments:
[1] = molecular target: Bovine cardiac myosin (Bos taurus (Bovine), UniProt Q9BE39); experiment: Cardiac muscle myosin II actin-activated ATPase assay (NADH-coupled); assay type: biochemical; set-up: key to Ratio CMMII:NMII Ki/EC50: NMII-sel: no Ki value for cardiac myosin II could be determined; the compounds had no detectable inhibitory properties versus the cardiac myosin II; conditions: for Ki: 300 nM cardiac myosin, 10 μM actin, 25° C., read-out: CMMII KI; for Ratio CMMII:NMII Ki/EC50: cardiac myosin II Ki over nonmuscle myosin II EC50
Summary of the method: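 Inhibitory constants came from a quadratic one-to-one binding fit of 16-point dose-responses (highest final 50 uM, triplicate). Rates were NADH-calibrated fluorescence slopes over 30 min at 25° C, with 300 nM bovine cardiac myosin, 10 μM actin and 1 mM ATP coupled through PK/LDH in pH 7.0 MOPS buffer.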

[2] = Photostability, percentage remaining undegraded under illumination or in the dark; conditions: for Photostability 4 hours: percentage remaining undegraded after 4 hours illumination; for Photostability 24 hours: percentage remaining undegraded after 24 hours illumination; for Photostability Dark (24 h): percentage remaining undegraded in the dark
[3] = molecular target: Rabbit skeletal myosin; experiment: Skeletal muscle myosin II actin-activated ATPase assay; assay type: biochemical; conditions: 20 nM skeletal muscle myosin II; read-out: SKMMII KI
Summary of the method: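 Inhibitory constants come from a quadratic one-site fit of 16-point, triplicate dose-response data, highest compound concentration 50 uM. Rates are slopes of NADH fluorescence decline over 30 min, coupling ATP turnover of 20 nM rabbit skeletal myosin II with 10 μM actin and 1 mM ATP via PK/LDH, pH 7.0, 25 °C.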

Sequence of Bovine cardiac myosin (Q9BE39 whole entry): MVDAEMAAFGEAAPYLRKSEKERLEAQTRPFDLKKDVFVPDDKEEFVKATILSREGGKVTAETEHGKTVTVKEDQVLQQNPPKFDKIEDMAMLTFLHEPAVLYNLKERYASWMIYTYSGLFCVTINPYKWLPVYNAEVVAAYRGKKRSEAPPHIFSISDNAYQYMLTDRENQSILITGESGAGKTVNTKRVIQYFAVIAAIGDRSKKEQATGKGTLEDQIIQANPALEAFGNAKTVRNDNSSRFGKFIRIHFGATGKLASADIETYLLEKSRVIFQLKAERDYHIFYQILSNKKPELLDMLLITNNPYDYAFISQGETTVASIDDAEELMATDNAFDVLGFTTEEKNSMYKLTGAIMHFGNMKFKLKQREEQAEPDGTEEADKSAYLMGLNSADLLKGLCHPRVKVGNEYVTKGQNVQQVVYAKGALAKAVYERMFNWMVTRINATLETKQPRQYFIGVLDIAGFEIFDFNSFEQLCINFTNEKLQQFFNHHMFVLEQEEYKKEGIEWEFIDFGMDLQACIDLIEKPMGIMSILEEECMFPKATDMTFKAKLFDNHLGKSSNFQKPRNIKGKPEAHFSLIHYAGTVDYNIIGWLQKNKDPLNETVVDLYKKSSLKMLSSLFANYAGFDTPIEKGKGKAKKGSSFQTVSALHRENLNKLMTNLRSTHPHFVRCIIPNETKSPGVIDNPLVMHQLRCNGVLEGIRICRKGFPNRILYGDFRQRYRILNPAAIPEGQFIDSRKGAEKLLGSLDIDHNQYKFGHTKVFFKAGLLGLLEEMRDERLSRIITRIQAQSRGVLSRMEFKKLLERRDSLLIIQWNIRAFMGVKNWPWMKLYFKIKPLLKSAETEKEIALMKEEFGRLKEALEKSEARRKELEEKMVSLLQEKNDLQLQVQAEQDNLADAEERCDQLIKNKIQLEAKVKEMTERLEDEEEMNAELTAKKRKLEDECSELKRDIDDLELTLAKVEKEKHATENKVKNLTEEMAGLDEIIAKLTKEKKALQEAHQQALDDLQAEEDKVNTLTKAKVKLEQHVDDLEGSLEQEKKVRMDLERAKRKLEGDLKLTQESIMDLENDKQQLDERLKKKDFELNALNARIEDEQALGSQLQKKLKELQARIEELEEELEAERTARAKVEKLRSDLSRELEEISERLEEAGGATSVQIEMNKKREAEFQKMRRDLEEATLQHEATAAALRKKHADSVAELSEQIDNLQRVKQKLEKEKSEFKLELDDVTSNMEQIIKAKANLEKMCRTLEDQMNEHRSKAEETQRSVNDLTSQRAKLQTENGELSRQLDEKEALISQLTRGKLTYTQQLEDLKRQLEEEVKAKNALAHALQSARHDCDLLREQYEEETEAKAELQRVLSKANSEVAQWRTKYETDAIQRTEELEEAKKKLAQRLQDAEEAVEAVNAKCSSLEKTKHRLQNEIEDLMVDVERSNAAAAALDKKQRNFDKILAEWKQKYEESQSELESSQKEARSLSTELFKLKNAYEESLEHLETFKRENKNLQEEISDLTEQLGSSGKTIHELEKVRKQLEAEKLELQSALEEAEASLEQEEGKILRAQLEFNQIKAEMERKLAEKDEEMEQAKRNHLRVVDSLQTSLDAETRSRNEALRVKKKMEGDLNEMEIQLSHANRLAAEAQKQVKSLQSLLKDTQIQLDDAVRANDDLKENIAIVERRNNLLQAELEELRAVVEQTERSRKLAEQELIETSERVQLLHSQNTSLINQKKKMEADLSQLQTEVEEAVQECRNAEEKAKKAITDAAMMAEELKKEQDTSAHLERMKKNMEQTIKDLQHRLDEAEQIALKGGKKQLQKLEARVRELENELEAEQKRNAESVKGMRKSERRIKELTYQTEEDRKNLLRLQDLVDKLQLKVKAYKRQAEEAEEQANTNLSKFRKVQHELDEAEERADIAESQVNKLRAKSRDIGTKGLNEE
Sequence of Bovine cardiac myosin (P85100 whole entry partner): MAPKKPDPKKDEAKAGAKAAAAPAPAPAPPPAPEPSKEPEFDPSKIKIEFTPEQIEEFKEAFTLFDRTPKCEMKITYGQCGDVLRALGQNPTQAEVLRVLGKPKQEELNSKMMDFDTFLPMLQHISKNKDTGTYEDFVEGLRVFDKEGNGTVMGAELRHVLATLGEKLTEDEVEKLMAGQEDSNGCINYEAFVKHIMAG
Sequence of Bovine cardiac myosin (Q3SZE5 whole entry partner): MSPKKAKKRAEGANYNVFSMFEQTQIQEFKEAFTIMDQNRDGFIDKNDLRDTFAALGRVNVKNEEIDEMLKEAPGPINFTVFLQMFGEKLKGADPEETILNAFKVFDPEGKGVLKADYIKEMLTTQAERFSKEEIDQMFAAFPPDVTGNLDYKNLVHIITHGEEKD

Structure (SMILES)	Ki [1] [µM]	Ratio CMMII:NMII Ki/EC50 [1]	Photostability 4 hours [2] [%]	Photostability 24 hours [2] [%]	Photostability Dark (24 h) [2] [%]	Ki [3] [µM]
CCc1cc2c(s1)N=C1N(c3ccc(C#N)cc3)CC[C@@]1(O)C2=O [BPN-0027038]	17	6.3	>99	98.7	>99	0.61
Cc1ccc2c(c1)C(=O)[C@]1(O)CCN(c3ccc4cccnc4c3)C1=N2 [BPN-0027039]	68	3.1	89.8	31.3	95.9	4.6
Cc1ccc2c(c1)C(=O)[C@]1(O)CCN(c3ccc4ncccc4c3)C1=N2 [BPN-0027040]	37	30.8	94.8	21.4	95.7	2.6
Cc1ccc2c(c1)C(=O)[C@]1(O)CCN(c3ccc4ccncc4c3)C1=N2 [BPN-0027042]	–	NMII-sel	92.7	13.8	>99	10
O=C1c2c(sc3c2CCCC3)N=C2N(c3ccccc3)CC[C@@]12O [BPN-0027043]	–	NMII-sel	97.7	72.3	>99	15
Cc1cc2c(cc1C(F)(F)F)N=C1N(c3ccc(C#N)cc3)CC[C@@]1(O)C2=O [BPN-0027071]	–	NMII-sel	>99	95.3	>99	20
Cc1cc2c(s1)C(=O)[C@]1(O)CCN(c3ccc(C#N)c(C)c3)C1=N2 [BPN-0027072]	31	3.1	>99	>99	>99	5
Cc1cc2c(s1)C(=O)[C@]1(O)CCN(c3cccc(Br)c3)C1=N2 [BPN-0027074]	77	3.7	95.8	93.4	94.5	16
Cc1cc2c(cc1C(F)(F)F)N=C1N(c3ccc(Cl)cc3)CC[C@@]1(O)C2=O [BPN-0027080]	–	NMII-sel	98.1	88.1	>99	4.8
Cc1sc2c(c1C)C(=O)[C@]1(O)CCN(c3ccc(I)cc3)C1=N2 [BPN-0027081]	9	8.2	97.0	46.3	96.9	0.29
Cc1cc2c(cc1C(F)(F)F)N=C1N(c3ccc4ccoc4c3)CC[C@@]1(O)C2=O [BPN-0027108]	–	NMII-sel	>99	97.0	>99	10
Cc1cc2c(cc1C)C(=O)[C@]1(O)CCN(c3ccc(I)cc3)C1=N2 [BPN-0027109]	11	21.2	82.5	29.4	>99	0.27
Cc1nc2cc(N3CC[C@@]4(O)C(=O)c5cc(C)c(C)cc5N=C34)ccc2o1 [BPN-0027118]	5.5	4.6	68.6	9.2	94.4	0.68
Cc1cc2c(cc1C)C(=O)[C@]1(O)CCN(c3ccc4scnc4c3)C1=N2 [BPN-0027121]	19	7.6	75.6	6.5	98.6	2.7
Cc1cc2c(cc1C)C(=O)[C@]1(O)CCN(c3ccc4ncsc4c3)C1=N2 [BPN-0027122]	45	26.5	69.5	5.3	97.1	5.9
Cn1ncc2c1N=C1N(c3ccccc3)CC[C@@]1(O)C2=O [BPN-0027159]	–	NMII-sel	89.9	22.5	>99	330

Structure (SMILES)	Ki [1] [µM]	Ratio CMMII:NMII Ki/EC50 [1]	Photostability 4 hours [2] [%]	Photostability 24 hours [2] [%]	Photostability Dark (24 h) [2] [%]	Ki [3] [µM]
Cc1ccc2c(c1)C(=O)[C@]1(O)CCN(c3ccc4ncc(C)cc4c3)C1=N2 [BPN-0027160]	30	10.3	95.5	73.0	>99	0.2
Cc1cc2cc(N3CC[C@@]4(O)C(=O)c5cc(C)c(C)cc5N=C34)ccc2cn1 [BPN-0027161]	24	21.8	78.6	60.2	98.3	0.24
Cc1cc2c(s1)C(=O)[C@]1(O)CCN(c3ccc(C#N)c(Cl)c3)C1=N2 [BPN-0027162]	52	6.6	98.5	95.9	>99	4.5
Cc1ccc2c(c1)C(=O)[C@]1(O)CCN(c3ccc(CO)c(Cl)c3)C1=N2 [BPN-0027163]	21	5.0	95.0	44.6	>99	5.9
Cc1cc2c(s1)C(=O)[C@]1(O)CCN(c3ccc4ncccc4c3)C1=N2 [BPN-0027181]	91	33.7	>99	99.0	>99	3.1
Cc1cc2c(cc1F)C(=O)[C@]1(O)CCN(c3ccc4ncsc4c3)C1=N2 [BPN-0027196]	–	NMII-sel	94.9	7.1	>99	12
Cc1cc2c(cc1F)C(=O)[C@]1(O)CCN(c3ccc4ncccc4c3)C1=N2 [BPN-0027197]	–	NMII-sel	>99	36.4	>99	2.4
Cc1nc2cc(N3CC[C@@]4(O)C(=O)c5cc(F)c(C)cc5N=C34)ccc2o1 [BPN-0027198]	10.5	3.6	89.9	21.4	>99	0.88
Cc1nc2ccc(N3CC[C@@]4(O)C(=O)c5cc(C)c(C)cc5N=C34)cc2o1 [BPN-0027213]	33	11.4	46.3	1.0	85.0	0.45
Cc1cc2c(cc1C)C(=O)[C@]1(O)CCN(c3ccc4ncccc4c3)C1=N2 [BPN-0027215]	–	NMII-sel	73.2	9.2	97.3	1
Cc1cc2c(s1)N=C1N(c3ccc4ncccc4c3)CC[C@@]1(O)C2=O [BPN-0027216]	31	11.5	97.2	85.0	>99	4.6
CCc1cc2c(s1)N=C1N(c3ccc4ncccc4c3)CC[C@@]1(O)C2=O [BPN-0027217]	160	20.5	97.9	76.0	>99	21
O=C1c2cc(C(F)(F)F)ccc2N=C2N(c3ccc4ncccc4c3)CC[C@@]12O [BPN-0027218]	–	NMII-sel	90.0	4.4	95.5	40
Cc1cc2c(cc1C)C(=O)[C@]1(O)CCN(c3ccc4ncncc4c3)C1=N2 [BPN-0027228]	300	10.7	>99	89.1	>99	4.6
N#Cc1ccc(N2CC[C@@]3(O)C(=O)c4c(sc5c4CCCC5)N=C23)cc1 [BPN-0027236]	–	NMII-sel	>99	84.9	>99	5
Cc1cc(N2CC[C@@]3(O)C(=O)c4cc(C(F)(F)F)ccc4N=C23)on1 [BPN-0027237]	50	4.5	79.8	15.8	82.7	6.7

— patent US20250163056A1, “NONMUSCLE MYOSIN II INHIBITORS” (The University of Florida Research Foundation, Inc., priority 2018, published 2025)
